In US11471451B2, “Uses of crenolanib” (Arog Pharmaceuticals, Inc., priority 2019, dated 2022):

Key:
Assay type in all cases: in vivo, human
[1] = tested on: FLT3 Variants, FLT3 Activating Mutations, and Co-Occurring Mutations; assay: Example 1: single cell DNA sequencing (TAPESTRI) of longitudinal bone marrow samples; conditions: for Variant allele frequency FLT3 D835E: D1 0%; for Variant allele frequency DNMT3A R882H / Variant allele frequency FLT3 D839G / Variant allele frequency KRAS G12D / Variant allele frequency NRAS G13V: D1 1%; for Variant allele frequency FLT3 N841K: D1 18%; for Variant allele frequency FLT3 A680V: D1 20%; for Variant allele frequency FLT3 ITD: D1 22%; for Variant allele frequency DNMT3A R882C: D1 41%; for Variant allele frequency NPM1 dupTCTG: D1 44%
Procedure: In one aspect of the invention pertains to single cell sequencing analysis of recurrent AML genetic mutations that is performed using the […]™ platform. To use said platform, a cell suspension is introduced onto the platform using microfluidics, and each cell is then encapsulated in an oil droplet along with a protease to aid in DNA isolation. Cells are then lysed and loaded back onto the […]™ platform, where each single nucleus is encapsulated with a unique DNA based barcode linked to acrylamide-based beads and PCR master mix and primer sets against recurrent AML mutant genes in an oil droplet. These droplets are directly deposited in PCR tubes and exposed to UV light to release the barcodes. Subsequently the barcoded genomic DNA within the droplets can be amplified according to standard PCR amplification techniques. In this same aspect the PCR products are then isolated using standard molecular biology techniques and then libraries prepared for next-generation sequencing compatible with Illumina platforms (including MiSeq, HiSeq, and NovaSeq), followed by sequencing said libraries on one of the validated Illumina platforms (including MiSeq, HiSeq, and NovaSeq). In the same aspect, the sequencing contains at least 1,000,000 reads per sample, and the allele dropout out rate is at most 10%. Next-generation sequencing data can be analyzed at least one of but not limited to using […] Pipeline to generate genetic variant calls followed by […] Insight for final analysis including determining co-occurring genetic mutations, or standard next generation sequencing (NGS) analysis methods known to one skilled in the art.
The present invention includes the follow method of preparing single cell DNA sequencing. One example is a single-cell multi-omic assay for detecting single nucleotide variants, copy number variants, and protein changes simultaneously from the same cell, such as […]™. Mononuclear cells were isolated from bone marrow samples via FICOLL-PAQUE® gradient, resuspended in a 10% DMSO solution and frozen at −20° C. until needed. Single cell suspensions were prepared from thawed mononuclear cell samples to final concentrations indicated by the manufacturer's instructions, then loaded onto the […]™ instrument. According to the manufacturer, the […]™ platform uses microfluidics to separate single cells, encapsulate each cell within a […] droplet, proteases are added to each droplet to aid in DNA isolation. Cell encapsulation, targeted PCR, and next generation library preparation were performed per the […]™ platform's manufacturer's instructions using the […]™ platform and the Thermo Fisher SimpliAmp thermal cycler (cat #A24811, or equivalent). The prepared single-cell DNA library was sequenced using Illumina's MiSeq instrument, per the manufacturer's instructions. Analysis of these next-generation sequencing data was performed by first processing the sequencing data using the […] Pipeline (available on the Mission Bio website) to ultimately generate variant calls. The resultant loom files are then imported into the […]™ bioinformatics software, Insight, which is used to identify relevant variants, including co-occurring and rare mutations.
Longitudinal bone marrow samples obtained throughout the course of treatment were analyzed using single cell sequencing. […]

[2] = tested on: FLT3-wildtype relapsed/refractory AML; assay: Example 2: FLT3-wildtype relapsed/refractory AML patient; crenolanib besylate with salvage chemotherapy
Procedure: A person was diagnosed with AML in 2016. […] Initially, the patient was treated with a standard cytarabine/anthracycline based chemotherapy regimen. […] To treat this patient's disease and overcome the rise in FLT3 ligand that has been documented to occur after successive rounds of chemotherapy, even in FLT3-wildtype patients, this patient was provided oral crenolanib besylate in combination with salvage chemotherapy for relapsed/refractory patients. […] The patient was treated with salvage chemotherapy, comprised of five days of fludarabine, five days of cytarabine, 3 days of idarubicin, and G-CSF, followed by 100 mg of crenolanib besylate three times daily starting on day 7 of treatment.
The study was designed to determine the safety of crenolanib when combined with standard salvage chemotherapy in patients with relapsed/refractory AML, patients only remained on study for 1-2 cycles of induction crenolanib combination therapy.

[3] = tested on: AML with FLT3-ITD mutation; assay: Example 3: newly diagnosed AML patient (FLT3-ITD, NRAS, NPM1); crenolanib besylate with standard chemotherapy
Procedure: A person was diagnosed with AML in 2016. […] To treat this patient's disease and overcome the FLT3 mutation, this patient was provided oral crenolanib besylate in combination with standard chemotherapy on a clinical trial for newly diagnosed AML patients with activating FLT3 mutations. […] The patient was treated with induction chemotherapy, comprised of seven days of cytarabine and three days of daunorubicin, followed by 100 mg of crenolanib besylate three times daily starting on day 10 of treatment.
In an effort to maintain remission, the patient was then administered one cycle of high dose cytarabine consolidation chemotherapy, followed by oral crenolanib besylate at 100 mg three times daily starting 48 hours after the last dose of chemotherapy.

[4] = Consolidation (D237), HiDAC + crenolanib
[5] = Induction (D53), induction chemotherapy + crenolanib
[6] = Maintenance (D294), single agent crenolanib besylate
[7] = Maintenance (D406), completion of single agent maintenance

CC1(COc2ccc3c(c2)ncn3-c2ccc3cccc(N4CCC(N)CC4)c3n2)COC1 [crenolanib, 4-Piperidinamine, 1-[2-[5-[(3-methyl-3-oxetanyl)methoxy]-1H-benzimidazol-1-yl]-8-quinolinyl]]
Variant allele frequency FLT3 D835E [1, 4]: 0%
Variant allele frequency DNMT3A R882H [1, 4]: 1%
Variant allele frequency FLT3 D839G [1, 4]: 1%
Variant allele frequency KRAS G12D [1, 4]: 1%
Variant allele frequency NRAS G13V [1, 4]: 0%
Variant allele frequency FLT3 N841K [1, 4]: 0%
Variant allele frequency FLT3 A680V [1, 4]: 1%
Variant allele frequency FLT3 ITD [1, 4]: 0%
Variant allele frequency DNMT3A R882C [1, 4]: 5%
Variant allele frequency NPM1 dupTCTG [1, 4]: 0%
Variant allele frequency FLT3 D835E [1, 5]: 1%
Variant allele frequency DNMT3A R882H [1, 5]: 3%
Variant allele frequency FLT3 D839G [1, 5]: 3%
Variant allele frequency KRAS G12D [1, 5]: 0%
Variant allele frequency NRAS G13V [1, 5]: 0%
Variant allele frequency FLT3 N841K [1, 5]: 0%
Variant allele frequency FLT3 A680V [1, 5]: 0%
Variant allele frequency FLT3 ITD [1, 5]: 3%
Variant allele frequency DNMT3A R882C [1, 5]: 0%
Variant allele frequency NPM1 dupTCTG [1, 5]: 4%
Variant allele frequency FLT3 D835E [1, 6]: 0%
Variant allele frequency DNMT3A R882H [1, 6]: 0%
Variant allele frequency FLT3 D839G [1, 6]: 0%
Variant allele frequency KRAS G12D [1, 6]: 0%
Variant allele frequency NRAS G13V [1, 6]: 0%
Variant allele frequency FLT3 N841K [1, 6]: 0%
Variant allele frequency FLT3 A680V [1, 6]: 0%
Variant allele frequency FLT3 ITD [1, 6]: 0%
Variant allele frequency DNMT3A R882C [1, 6]: 6%
Variant allele frequency NPM1 dupTCTG [1, 6]: 0%
Variant allele frequency FLT3 D835E [1, 7]: 0%
Variant allele frequency DNMT3A R882H [1, 7]: 0%
Variant allele frequency FLT3 D839G [1, 7]: 0%
Variant allele frequency KRAS G12D [1, 7]: 0%
Variant allele frequency NRAS G13V [1, 7]: 0%
Variant allele frequency FLT3 N841K [1, 7]: 0%
Variant allele frequency FLT3 A680V [1, 7]: 0%
Variant allele frequency FLT3 ITD [1, 7]: 0%
Variant allele frequency DNMT3A R882C [1, 7]: 8%
Variant allele frequency NPM1 dupTCTG [1, 7]: 0%
remaining FLT3 and KRAS mutations ([1]; after approximately two months of single agent maintenance therapy): cleared
remaining FLT3 and KRAS mutations ([1]; at the completion of maintenance therapy): remained absent
all variant FLT3 clones ([1]; by day 79 into maintenance): cleared
mutant containing cancer cell populations (FIGS. 2-4 scatter plots) ([1]; diagnosis versus 35 days following the start of induction): eliminated the vast majority
NPM1 and FLT3-ITD ([1]; following consolidation): clearance
variant FLT3 and FLT3 activating mutations (FIG. 1) ([1]; induction chemotherapy with crenolanib, HiDAC consolidation with crenolanib, single agent crenolanib maintenance): eliminated
patient status ([2]; at last follow up, after a single cycle): remains alive and in remission
mutations in BCOR, NRAS, and U2AF1 ([2]; day 32, bulk DNA sequencing methods): not detected
response ([2]; day 32, crenolanib combination therapy): complete morphological remission
bone marrow blasts ([2]; person, baseline 17%, day 32, fludarabine, cytarabine, idarubicin, G-CSF, then 100 mg crenolanib besylate three times daily from day 7): less than 5%
FLT3-ITD mutation ([3]; day 24, PCR based test): no longer detected
response ([3]; day 24, crenolanib combination therapy): complete morphologic remission
remission status ([3]; day 98, after one cycle of high dose cytarabine consolidation followed by crenolanib besylate 100 mg three times daily): remained in remission
FLT3-ITD mutation ([3]; day 98, standard PCR tests): remained undetectable
bone marrow blasts ([3]; person, baseline 8%, day 24, cytarabine 7 days + daunorubicin 3 days, then 100 mg crenolanib besylate three times daily from day 10): 5%
